Results from patent publication US20130344026A1, “Dimeric Smac Mimetics” (priority 2009, published 2013).
Read-outs that look alike come from different tables or passages of the source.

Tested on: PANC-1 cells
Assay: cell viability assay in PANC-1 cells (compound alone, + 100 ng/ml TNFa, + 300 ng/ml TRAIL)
Format: cell-based
[1] = Homo sapiens, PANC-1, compound alone, Tables 6-10, read-out: IC50 (μM) in cell viability assay in PANC-1 cells: Compound alone
[2] = with 100 ng/ml TNFa, Tables 6-10, read-out: IC50 (μM) in cell viability assay in PANC-1 cells: Compound + 100 ng/ml TNFa
[3] = with 300 ng/ml TRAIL, Tables 6-10, read-out: IC50 (μM) in cell viability assay in PANC-1 cells: Compound + 300 ng/ml TRAIL
[4] = Homo sapiens, PANC-1, compound alone, Tables 15-18, read-out: IC50 (uM) in cell viability assay in PANC-1 cells: Cmpnd alone
[5] = with 100 ng/ml TNFa, Tables 15-18, read-out: IC50 (uM) in cell viability assay in PANC-1 cells: Cmpnd + 100 ng/ml TNFa
[6] = with 300 ng/ml TRAIL, Tables 15-18, read-out: IC50 (uM) in cell viability assay in PANC-1 cells: Cmpnd + 300 ng/ml TRAIL
[7] = Homo sapiens, PANC-1 cells, compound alone, read-out: IC50 (uM) in cell viability assay in PANC-1 cells, Cmpnd alone
[8] = PANC-1 cells, + 100 ng/ml TNFa, read-out: IC50 (uM) in cell viability assay in PANC-1 cells, Cmpnd + 100 ng/ml TNFa
[9] = PANC-1 cells, + 300 ng/ml TRAIL, read-out: IC50 (uM) in cell viability assay in PANC-1 cells, Cmpnd + 300 ng/ml TRAIL

Structure (SMILES) | IC50 [1] [µM] | IC50 [2] [µM] | IC50 [3] [µM] | other results
CN[C@@H](C)C(=O)N[C@H](C(=O)N1CCC[C@H]1Cn1cnnc1CCc1ccccc1)[C@@H](C)OCCCCCCO[C@H](C)[C@H](NC(=O)[C@H](C)NC)C(=O)N1CCC[C@H]1Cn1cnnc1CCc1ccccc1 [Compound 86] | > 1 | > 1 | > 1 | –
CN[C@@H](C)C(=O)NC(C(=O)N1C[C@@H](NC(=O)c2cccc(C(=O)N[C@H]3CC(C(=O)N[C@H](CO)Cc4ccccc4)N(C(=O)[C@@H](NC(=O)[C@H](C)NC)C(C)(C)C)C3)c2)CC1C(=O)N[C@H](CO)Cc1ccccc1)C(C)(C)C (stereo partly shown) [Compound 43] | > 1 | 0.05 | 0.048 | –
CN[C@@H](C)C(=O)N[C@@H](CC(=O)NCC#CC#CCNC(=O)C[C@H](NC(=O)[C@H](C)NC)C(=O)N1CCC[C@H]1C(=O)N[C@@H]1CCCc2ccccc21)C(=O)N1CCC[C@H]1C(=O)N[C@@H]1CCCc2ccccc21 [Compound P2-41] | – | – | – | IC50 [4]: > 1 µM; IC50 [5]: 0.094 µM; IC50 [6]: 0.092 µM
CN[C@@H](C)C(=O)N[C@H](C(=O)N1CCC[C@H]1CN1C(=O)OC[C@@H]1Cc1ccccc1)[C@@H](C)OCCCCCCO[C@H](C)[C@H](NC(=O)[C@H](C)NC)C(=O)N1CCC[C@H]1CN1C(=O)OC[C@@H]1Cc1ccccc1 [Compound 84] | > 1 | > 1 | > 1 | –
CN[C@@H](C)C(=O)N[C@@H](CCCCCC[C@H](NC(=O)[C@H](C)NC)C(=O)N1CCC[C@H]1CNC(=O)c1cc2ccccc2cc1OC)C(=O)N1CCC[C@H]1CNC(=O)c1cc2ccccc2cc1OC [Compound 38] | > 1 | > 1 | > 1 | –
CN[C@@H](C)C(=O)N[C@H](C(=O)N1C[C@@H](NC(=O)c2cc(C(=O)NCCN)cc(C(=O)N[C@H]3C[C@@H](C(=O)N[C@@H]4CCCc5ccccc54)N(C(=O)[C@@H](NC(=O)[C@H](C)NC)C(C)(C)C)C3)c2)C[C@H]1C(=O)N[C@@H]1CCCc2ccccc21)C(C)(C)C [Compound 126] | > 1 | 0.023 | 0.028 | –
CN[C@@H](C)C(=O)NC(C(=O)N[C@@H](CCNC(=O)CCc1cn([C@H]2C[C@@H](C(=O)N[C@@H]3CCCc4ccccc43)N(C(=O)[C@@H](NC(=O)[C@H](C)NC)C(C)(C)C)C2)nn1)C(=O)N[C@H](C)C(C)C)C(C)(C)C (stereo partly shown) [Compound 198] | > 1 | 0.109 | 0.069 | –
CN[C@@H](C)C(=O)N[C@H](C(=O)N1C[C@@H](NC(=O)c2cccc(C(=O)N[C@H]3C[C@@H](C(=O)NC4CCOc5ccccc54)N(C(=O)[C@@H](NC(=O)[C@H](C)NC)C(C)(C)C)C3)c2)C[C@H]1C(=O)NC1CCOc2ccccc21)C(C)(C)C (single isomer, unassigned) [Compound 65] | > 1 | 0.265 | 0.328 | –
CN[C@@H](C)C(=O)N[C@H](C(=O)N1C[C@@H](NC(=O)c2cccc(C(=O)N[C@H]3C[C@@H](C(=O)NCCc4ccc(N)cc4)N(C(=O)[C@@H](NC(=O)[C@H](C)NC)C(C)(C)C)C3)c2)C[C@H]1C(=O)NCCc1ccc(N)cc1)C(C)(C)C [Compound 4] | > 1 | > 1 | 0.739 | –
C#CC[C@H](NC(=O)[C@H](C)NC)C(=O)N1C[C@@H](NC(=O)c2cccc(C(=O)N[C@H]3C[C@@H](C(=O)N[C@@H]4CCCc5ccccc54)N(C(=O)[C@@H](NC(=O)[C@H](C)NC)C(C)(C)C)C3)c2)C[C@H]1C(=O)N[C@@H]1CCCc2ccccc21 [Compound H-5] | – | – | – | IC50 [4]: > 1 µM; IC50 [5]: 0.008 µM; IC50 [6]: 0.009 µM
CN[C@@H](C)C(=O)N[C@H](C(=O)N[C@@H](CCNC(=O)c1cccc(C(=O)N[C@H]2C[C@@H](C(=O)N[C@@H]3CCCc4ccccc43)N(C(=O)[C@@H](NC(=O)[C@H](C)NC)C(C)(C)C)C2)c1)C(=O)N[C@H](C)c1ccccc1)C(C)C [Compound 175] | > 1 | 0.0163 | 0.0357 | –
CN[C@@H](C)C(=O)N[C@@H](C)C(=O)N[C@@H](CCNC(=O)c1cccc(C(=O)N[C@H]2C[C@@H](C(=O)N[C@@H]3CCCc4ccccc43)N(C(=O)[C@@H](NC(=O)[C@H](C)NC)C(C)(C)C)C2)c1)C(=O)N[C@H](C)c1ccccc1 [Compound 178] | > 1 | 0.054 | 0.089 | –
CN[C@@H](C)C(=O)N[C@H](C(=O)N[C@@H](CCNC(=O)c1cc(C(=O)N[C@H]2C[C@@H](C(=O)N[C@@H]3CCCc4ccccc43)N(C(=O)[C@@H](NC(=O)[C@H](C)NC)C(C)(C)C)C2)cc([N+](=O)[O-])c1)C(=O)N[C@@H]1CCCc2ccccc21)C(C)C [Compound 182] | > 1 | 0.043 | 0.08 | –
CN[C@@H](C)C(=O)N[C@@H](CCCCCC[C@H](NC(=O)[C@H](C)NC)C(=O)N1c2ccccc2C[C@H]1C(=O)N[C@H](C)c1ccccc1)C(=O)N1c2ccccc2C[C@H]1C(=O)N[C@H](C)c1ccccc1 [Compound 92] | > 1 | 0.547 | 0.798 | –
CN[C@@H](C)C(=O)N[C@@H](CCCCCC[C@H](NC(=O)[C@H](C)NC)C(=O)N1CCC[C@H]1CC(=O)N[C@H](C)c1ccccc1)C(=O)N1CCC[C@H]1CC(=O)N[C@H](C)c1ccccc1 [Compound 79] | > 1 | > 1 | > 1 | –
CN[C@@H](C)C(=O)Nc1nc(-c2ccccc2)c(C(=O)NCCc2cn([C@H]3C[C@@H](C(=O)N[C@@H]4CCCc5ccccc54)N(C(=O)[C@@H](NC(=O)[C@H](C)NC)C(C)(C)C)C3)nn2)s1 [Compound 196] | > 1 | 0.577 | 0.622 | –
CN[C@@H](C)C(=O)N[C@H](C(=O)N1C[C@@H](NC(=O)c2cccc(C(=O)N[C@H]3C[C@@H](C(=O)NCc4ccc(OC)c(O)c4)N(C(=O)[C@@H](NC(=O)[C@H](C)NC)C(C)(C)C)C3)c2)C[C@H]1C(=O)NCc1ccc(OC)c(O)c1)C(C)(C)C [Compound 5] | > 1 | 0.706 | 0.982 | –
CN[C@@H](C)C(=O)N[C@@H](CCC(=O)Nc1cccc(C#Cc2cccc(NC(=O)CC[C@H](NC(=O)[C@H](C)NC)C(=O)N3CCC[C@H]3C(=O)N[C@@H]3CCCc4ccccc43)c2)c1)C(=O)N1CCC[C@H]1C(=O)N[C@@H]1CCCc2ccccc21 [Compound P2-49] | – | – | – | IC50 [4]: > 1 µM; IC50 [5]: 0.033 µM; IC50 [6]: 0.033 µM
CN[C@@H](C)C(=O)N[C@H](C(=O)N1C[C@@H](NC(=O)c2cc(C(=O)N[C@H]3C[C@@H](C(=O)N[C@H](C)c4ccc(Cl)cc4)N(C(=O)[C@@H](NC(=O)[C@H](C)NC)C(C)(C)C)C3)[nH]n2)C[C@H]1C(=O)N[C@H](C)c1ccc(Cl)cc1)C(C)(C)C [Compound P3-108] | – | – | – | IC50 [7]: > 1 µM; IC50 [8]: 0.012 µM; IC50 [9]: 0.036 µM
CN[C@@H](C)C(=O)N[C@@H](CCCCCC[C@H](NC(=O)[C@H](C)NC)C(=O)N1CCC[C@H]1CNC(=O)c1c(OC)cccc1OC)C(=O)N1CCC[C@H]1CNC(=O)c1c(OC)cccc1OC [Compound 35] | > 1 | > 1 | > 1 | –
CN[C@@H](C)C(=O)N[C@@H]1CCN(C(=O)c2ccc(C(=O)N[C@H]3C[C@@H](C(=O)N[C@@H]4CCCc5ccccc54)N(C(=O)[C@@H](NC(=O)[C@H](C)NC)C(C)(C)C)C3)cc2)C1 [Compound 186] | > 1 | 0.56 | 0.55 | –
CN[C@@H](C)C(=O)N[C@H](C(=O)N1CCC[C@H]1C(=O)N[C@H]1c2ccccc2C[C@H]1OCCCCCCO[C@@H]1Cc2ccccc2[C@@H]1NC(=O)[C@@H]1CCCN1C(=O)[C@@H](NC(=O)[C@H](C)NC)C(C)(C)C)C(C)(C)C [Compound 120] | > 1 | – | – | –
CCC1(NC(=O)[C@@H]2C[C@H](NC(=O)c3cccc(C(=O)N[C@H]4C[C@@H](C(=O)NC5(CC)CCCc6ccccc65)N(C(=O)[C@@H](NC(=O)[C@H](C)NC)C(C)(C)C)C4)c3)CN2C(=O)[C@@H](NC(=O)[C@H](C)NC)C(C)(C)C)CCCc2ccccc21 (stereo partly shown) [Compound 50] | > 1 | 0.236 | 0.122 | –
CN[C@@H](C)C(=O)N[C@H](C(=O)N1C[C@@H](Oc2cccc(CCCCc3cccc(O[C@H]4C[C@@H](C(=O)N[C@@H]5CCCc6ccccc65)N(C(=O)[C@@H](NC(=O)[C@H](C)NC)C(C)(C)C)C4)c3)c2)C[C@H]1C(=O)N[C@@H]1CCCc2ccccc21)C(C)(C)C [Compound P3-104] | – | – | – | IC50 [7]: > 1 µM; IC50 [8]: 0.042 µM; IC50 [9]: 0.042 µM
CN[C@@H](C)C(=O)N[C@H](C(=O)N1CCC[C@H]1C(=O)N[C@H](C)c1ccccc1)[C@H](C)n1cc(CCCc2cn([C@@H](C)[C@H](NC(=O)[C@H](C)NC)C(=O)N3CCC[C@H]3C(=O)N[C@H](C)c3ccccc3)nn2)nn1 [Compound 115] | > 1 | 0.057 | 0.063 | –
CN[C@@H](C)C(=O)N[C@H](C(=O)N1CCC[C@H]1CN(CCc1ccccc1)C(=O)C(F)(F)F)[C@@H](C)OCC#CC#CCN(C(=O)[C@H](C)NC)[C@H](C(=O)N1CCC[C@H]1CN(CCc1ccccc1)C(=O)C(F)(F)F)[C@@H](C)O [Compound P4-19] | – | – | – | IC50 [4]: > 1 µM; IC50 [5]: 0.005 µM; IC50 [6]: 0.006 µM
CN[C@@H](CO)C(=O)N[C@H](C(=O)N1C[C@@H](NC(=O)c2cccc(C(=O)N[C@H]3C[C@@H](C(=O)N[C@H](C)c4ccccc4)N(C(=O)[C@@H](NC(=O)[C@H](CO)NC)C(C)(C)C)C3)c2)C[C@H]1C(=O)N[C@H](C)c1ccccc1)C(C)(C)C [Compound P3-90] | – | – | – | IC50 [7]: > 1 µM; IC50 [8]: 0.007 µM; IC50 [9]: 0.021 µM
